Assay results from patent US20240376074A1, “NAMPT INHIBITORS AND USES THEREOF” (Remedy Plan, Inc., priority 2021, published 2024).

Molecular target: T1, NAMPT (Homo sapiens, UniProt P43490)
T1 construct: purchased Abcam ab221819
Assay: NAMPT Activity Assay (Abcam #ab221819)
Assay type: biochemical
Conditions: purified NAMPT, percent inhibition from OD450 nm; compound concentration not given
Description: The NAMPT Activity Assay (Abcam #ab221819) was performed following manufacturers two-step reaction protocol. Briefly, compounds were added to a clear 96-well plate using the HP D300e Digital Dispenser. Purified NAMPT was added to all wells except the No NAMPT controls. Reaction Mix #1 was added to each well and the plate was incubated at 30*C for 1 hr followed by the addition of Reaction Mix #2. Absorbance was measured at OD450 nm using a multimode plate reader. Readings were recorded for 5 minutes and percent inhibition was calculated using: (1-(OD450 nm compound/OD450nm no drug))*100.

T1 sequence (P43490 whole entry): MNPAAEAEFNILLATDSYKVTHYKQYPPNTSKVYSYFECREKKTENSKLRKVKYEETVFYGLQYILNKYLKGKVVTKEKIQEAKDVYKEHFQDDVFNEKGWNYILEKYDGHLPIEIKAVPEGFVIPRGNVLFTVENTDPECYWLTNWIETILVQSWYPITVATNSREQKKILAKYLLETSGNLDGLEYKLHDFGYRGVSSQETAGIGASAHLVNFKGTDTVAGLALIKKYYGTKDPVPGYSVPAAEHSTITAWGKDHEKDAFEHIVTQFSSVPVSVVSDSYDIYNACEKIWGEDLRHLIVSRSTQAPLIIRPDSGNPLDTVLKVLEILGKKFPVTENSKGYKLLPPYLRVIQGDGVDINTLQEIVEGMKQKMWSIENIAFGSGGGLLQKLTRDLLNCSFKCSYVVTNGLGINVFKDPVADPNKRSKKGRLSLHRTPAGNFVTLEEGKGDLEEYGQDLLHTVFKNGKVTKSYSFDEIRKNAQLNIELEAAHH

Compound	NAMPT Inhibition Code*
CC(=O)N(CC1CC1)c1ccc(-c2ccc(NC(=O)COc3cccnc3)cn2)cc1Cl [I-T2119, N-[6-[4-[acetyl(cyclopropylmethyl)amino]-3-chloro-phenyl]-3-pyridyl]-2-(3-pyridyloxy)-acetamide]	C (C = ≥66% inhibition)
CC(=O)N(CC1CC1)c1ccc(-c2ccc(C(=O)NCCN3CCCCC3)cn2)cc1Cl [I-T2339, 6-[4-[acetyl(cyclopropylmethyl)amino]-3-chloro-phenyl]-N-[2-(1-piperidyl)ethyl]pyridine-3-carboxamide]	A (*A = <33% inhibition)
CC(=O)N(CC1CC1)c1ccc(-c2ccc(C(=O)NCc3c[nH]cn3)cn2)cc1Cl [I-T2151, 6-[4-[Acetyl(cyclopropylmethyl)amino]-3-chloro-phenyl]-N-(1H-imidazol-4-ylmethyl)pyridine-3-carboxamide]	A (*A = <33% inhibition)
CC(=O)N(CC1CC1)c1ccc(-c2ccc(C(=O)N3Cc4ccncc4C3)cn2)cc1Cl [I-T2138, N-[2-Chloro-4-[5-(1,3-dihydropyrrolo[3,4-c]pyridine-2-carbonyl)-2-pyridyl]phenyl]-N-(cyclopropylmethyl)acetamide]	A (*A = <33% inhibition)
CC(=O)N(CC1CC1)c1ccc(-c2ccc(C(=O)NCCc3cccnc3)cn2)cc1C(F)(F)F [I-T2303, 6-[4-[Acetyl(cyclopropylmethyl)amino]-3-(trifluoromethyl)phenyl]-N-[2-(3-pyridyl)ethyl]pyridine-3-carboxamide]	C (C = ≥66% inhibition)
CC(=O)N(CC(F)F)c1ccc(-c2ccc(C(=O)NCCc3cccnc3)cn2)cc1Cl [I-T2205, 6-[4-[Acetyl(2,2-difluoroethyl)amino]-3-chloro-phenyl]-N-[2-(3-pyridyl)ethyl]pyridine-3-carboxamide]	C (C = ≥66% inhibition)
CC(=O)N(CC1CC1)c1ccc(-c2ccc(C(=O)NCc3cccnn3)cn2)cc1Cl [I-T2146, 6-[4-[Acetyl(cyclopropylmethyl)amino]-3-chloro-phenyl]-N-(pyridazin-3-ylmethyl)pyridine-3-carboxamide]	B (B = >33 to <66% inhibition)
CC(=O)N(CC1CC1)c1ccc(-c2ccc(C(=O)N3Cc4ccc(F)cc4C3)cn2)cc1Cl [I-T2336, N-[2-chloro-4-[5-(5-fluoroisoindoline-2-carbonyl)-2-pyridyl]phenyl]-N-(cyclopropylmethyl) acetamide]	C (C = ≥66% inhibition)
CC(=O)N(CC1CC1)c1ccc(-c2ccc(C(=O)NCCCc3cn[nH]c3)cn2)cc1C(F)(F)F [I-T2304, 6-[4-[Acetyl(cyclopropylmethyl)amino]-3-(trifluoromethyl)phenyl]-N-[3-(1H-pyrazol-4-yl)propyl]pyridine-3-carboxamide]	C (C = ≥66% inhibition)
CC(=O)N(CC1CC1)c1ccc(-c2ccc(NC(=O)COc3ccccc3)cn2)cc1Cl [I-T2328, N-[6-[4-[acetyl(cyclopropylmethyl)amino]-3-chloro-phenyl]-3-pyridyl]-2-phenoxy-acetamide]	C (C = ≥66% inhibition)
CC(=O)N(CC1CC1)c1ccc(-c2ccc(C(=O)NCCc3ccncc3)cn2)cc1Cl [I-T2308, 6-[4-[Acetyl(cyclopropylmethyl)amino]-3-chloro-phenyl]-N-[2-(4-pyridyl)ethyl]pyridine-3-carboxamide]	C (C = ≥66% inhibition)
CC(=O)N(CC(F)F)c1ccc(-c2ccc(C(=O)NCCCc3cn[nH]c3)cn2)cc1Cl [I-T2108, 6-[4-[Acetyl(2,2-difluoroethyl)amino]-3-chloro-phenyl]-N-[3-(1H-pyrazol-4-yl)propyl]pyridine-3-carboxamide]	C (C = ≥66% inhibition)
CC(=O)N(CC1CC1)c1ccc(-c2ccc(C(=O)NCCCn3ccnc3)cn2)cc1Cl [I-T2128, 6-[4-[Acetyl(cyclopropylmethyl)amino]-3-chloro-phenyl]-N-(3-imidazol-1-ylpropyl)pyridine-3-carboxamide]	C (C = ≥66% inhibition)
CC(=O)N(CC1CC1)c1ccc(-c2ccc(C(=O)NCc3ccc[nH]3)cn2)cc1Cl [I-T2121, 6-[4-[Acetyl(cyclopropylmethyl)amino]-3-chloro-phenyl]-N-(1H-pyrrol-2-ylmethyl)pyridine-3-carboxamide]	B (B = >33 to <66% inhibition)
CC(=O)N(CC1CC1)c1ccc(-c2ccc(C(=O)NCCc3cccnc3)cn2)cc1F [I-T2301, 6-[4-[acetyl(cyclopropylmethyl)amino]-3-fluoro-phenyl]-N-[2-(3-pyridyl)ethyl]pyridine-3-carboxamide]	C (C = ≥66% inhibition)
CC(=O)N(CC1CC1)c1ccc(-c2ccc(NC(=O)C3CC3c3cccnc3)cn2)cc1Cl (centres unmarked) [I-T2289, N-[6-[4-[acetyl(cyclopropylmethyl)amino]-3-chloro-phenyl]-3-pyridyl]-2-(3-pyridyl)cyclo propanecarboxamide]	C (C = ≥66% inhibition)
CC(=O)N(CC(F)F)c1ccc(-c2ccc(NC(=O)/C=C/c3cccnc3)cn2)cc1Cl [I-T2293, (E)-N-[6-[4-[acetyl(2,2-difluoroethyl)amino]-3-chloro-phenyl]-3-pyridyl]-3-(3-pyridyl)prop-2-enamide]	C (C = ≥66% inhibition)
CC(=O)N(CC1CC1)c1ccc(-c2ccc(NC(=O)/C=C/c3ccccc3)cn2)cc1Cl [I-T2329, (E)-N-[6-[4-[acetyl(cyclopropylmethyl)amino]-3-chloro-phenyl]-3-pyridyl]-3-phenyl-prop-2-enamide]	C (C = ≥66% inhibition)
CC(=O)N(CC1CC1)c1ccc(-c2ccc(NC(=O)Cc3cccnc3)cn2)cc1Cl [I-T2267, N-[6-[4-[acetyl(cyclopropylmethyl)amino]-3-chloro-phenyl]-3-pyridyl]-2-(3-pyridyl)acetamide]	C (C = ≥66% inhibition)
CC(=O)N(CC1CC1)c1ccc(-c2ccc(C(=O)NC3Cc4ccccc4C3)cn2)cc1Cl [I-T2152, 6-[4-[Acetyl(cyclopropylmethyl)amino]-3-chloro-phenyl]-N-indan-2-yl-pyridine-3-carboxamide]	B (B = >33 to <66% inhibition)
CC(=O)N(CC(F)F)c1ccc(-c2ccc(C(=O)Nc3cnc4nccn4c3)cn2)cc1Cl [I-T2201, 6-[4-[Acetyl(2,2-difluoroethyl)amino]-3-chloro-phenyl]-N-imidazo[1,2-a]pyrimidin-6yl-pyridine-3-carboxamide]	C (C = ≥66% inhibition)

Other lines, results leading:

NAMPT Inhibition Code*	Compound
A (*A = <33% inhibition)	CC(=O)N(CC1CC1)c1ccc(-c2ccc(C(=O)NCCCc3cnn(C)c3)cn2)cc1Cl [I-T2366, 6-[4-[acetyl(cyclopropylmethyl)amino]-3-chloro-phenyl]-N-[3-(1-methylpyrazol-4-yl)propyl]pyridine-3-carboxamide]
A (*A = <33% inhibition)	CC(=O)N(CC1CC1)c1ccc(-c2ccc(C(=O)NCC3CC(F)(F)C3)cn2)cc1Cl [I-T2345, 6-[4-[acetyl(cyclopropylmethyl)amino]-3-chloro-phenyl]-N-[(3,3-difluorocyclobutyl)methyl]pyridine-3-carboxamide]
C (C = ≥66% inhibition)	CC(=O)N(CC1CC1)c1ccc(-c2ccc(C(=O)NCCc3ccsc3)cn2)cc1Cl [I-T2353, 6-[4-[acetyl(cyclopropylmethyl)amino]-3-chloro-phenyl]-N-[2-(3-thienyl)ethyl]pyridine-3-carboxamide]
A (*A = <33% inhibition)	CC(=O)N(CC1CC1)c1ccc(-c2ccc(NC(=O)Cc3cccnc3Cl)cn2)cc1Cl [I-T2392, N-[6-[4-[acetyl(cyclopropylmethyl)amino]-3-chloro-phenyl]-3-pyridyl]-2-(2-chloro-3-pyridyl)acetamide]
C (C = ≥66% inhibition)	CC(=O)N(CC1CC1)c1ccc(-c2ccc(C(=O)NCCC3CCCCC3)cn2)cc1Cl [I-T2348, 6-[4-[acetyl(cyclopropylmethyl)amino]-3-chloro-phenyl]-N-(2-cyclohexylethyl)pyridine-3-carboxamide]
C (C = ≥66% inhibition)	CC(=O)N(CC1CC1)c1ccc(-c2ccc(NC(=O)CCc3cccnc3F)cn2)cc1Cl [I-T2369]
A (*A = <33% inhibition)	CC(=O)N(CC1CC1)c1ccc(-c2ccc(NC(=O)CC3CCCCC3)cn2)cc1Cl [I-T2394, N-[6-[4-[acetyl(cyclopropylmethyl)amino]-3-chloro-phenyl]-3-pyridyl]-2-cyclohexyl-acetamide]
C (C = ≥66% inhibition)	CC(=O)N(CC1CC1)c1ccc(-c2ccc(C(=O)NCc3ccc(C(F)F)nc3)cn2)cc1Cl [I-T2397, 6-[4-[acetyl(cyclopropylmethyl)amino]-3-chloro-phenyl]-N-[[6-(difluoromethyl)-3-pyridyl]methyl]pyridine-3-carboxamide]
C (C = ≥66% inhibition)	CC(=O)N(CC1CC1)c1ccc(-c2ccc(C(=O)NCCc3cccc(F)c3)cn2)cc1Cl [I-T2342, 6-[4-[acetyl(cyclopropylmethyl)amino]-3-chloro-phenyl]-N-[2-(3-fluorophenyl)ethyl]pyridine-3-carboxamide]
A (*A = <33% inhibition)	CC(=O)N(CC1CC1)c1ccc(-c2ccc(C(=O)NCC3CCCC34CC4)cn2)cc1Cl (centres unmarked) [I-T2343, 6-[4-[acetyl(cyclopropylmethyl)amino]-3-chloro-phenyl]-N-(spiro[2.4]heptan-7-ylmethyl)pyridine-3-carboxamide]
A (*A = <33% inhibition)	CC(=O)N(CC1CC1)c1ccc(-c2ccc(C(=O)NCc3cncs3)cn2)cc1Cl [I-T2355, 6-[4-[acetyl(cyclopropylmethyl)amino]-3-chloro-phenyl]-N-(thiazol-5-ylmethyl)pyridine-3-carboxamide]
